Common to all, as to assay type: biochemical
Details in all cases: for inhibition at 0.1 µM: compound at 100 nM, [ATP] = Km

For assay [1], the target named is T1, BTK (Homo sapiens, UniProt Q06187).
T1 construct: purchased Invitrogen
The experiment in a line: Z'-LYTE kinase inhibition assay (Invitrogen), BTK. How it is done: (§1) Inhibitory activities of compounds against BTK, EGFR and EGFR mutants (EGFR L858R/T790M) were measured by Invitrogen using Z′-LYTE® Method as briefly described in the following.
(§2) Test Compounds are screened in 1% DMSO (final) in the well. For 10 point titrations, 3-fold serial dilutions are conducted from the starting concentration. All ATP Solutions are diluted to a 4× working concentration in Kinase Buffer (50 mM HEPES pH 7.5, 0.01% BRIJ-35, 10 mM MgCl2, 1 mM EGTA). Peptide/Kinase Mixtures are diluted to a 2× working concentration in the appropriate Kinase Buffers as described below.
(v) Peptide/Kinase Mixtures for measurement of BTK:
The 2×BTK/Tyr 01 mixture is prepared in 50 mM HEPES pH 7.5, 0.01% BRIJ-35, 10 mM MgCl2, 1 mM EGTA. The final 10 μL Kinase Reaction consists of 1.04-10.4 ng BTK and 2 μM Tyr 01 in 50 mM HEPES pH 7.5, 0.01% BRIJ-35, 10 mM MgCl2, 1 mM EGTA. After the 1 hour Kinase Reaction incubation, 5 μL of a 1:256 dilution of Development Reagent B is added.
(§3) Reaction starts by 30-second shaking of mixture consisting of 2.5 μL 4× test compound, 5 μL 2× kinase reaction mixture and 2.5 μL 4×ATP Solution on Bar-coded Corning, low volume NBS, black 384-well plate (Corning Cat. #3676). Then the mixture is incubated for 60-minute at room temperature for the kinase reaction, followed by addition of 5 μL of a 1:1024 dilution of development reagent A and 30-second plate shake. The mixture is then incubated for another 60-minute at room temperature for development reaction. Finally fluorescence is read by plate reader. […] The scale utilized in Tables 2 and 3 is as follows: ++ more than 50% inhibition and + less than 50% inhibition.
(§4) To determine IC50 of a compound against EGFR or EGFR mutants, a series of concentrations of the compound were tested for the inhibition. IC50 was calculated by plotting the concentration of compound vs the percentage of inhibition in treated wells using GraphPad Prism 5. […] The scale utilized in Table 4 is as follows: ++ less than 100 nM and + greater than 100 nM.

Assay [2] addresses T2, EGFR (ErbB1) (Homo sapiens, UniProt P00533).
T2 construct: purchased Invitrogen
In words: Z'-LYTE kinase inhibition assay (Invitrogen), EGFR. How it is done:
as §1, §2
(i) Peptide/Kinase Mixtures for measurement of EGFR (ErbB1):
The 2×EGFR (ErbB1)/Tyr 04 mixture is prepared in 50 mM HEPES pH 7.5, 0.01% BRIJ-35, 10 mM MgCl2, 4 mM MnCl2, 1 mM EGTA, 2 mMDTT. The final 10 μL Kinase Reaction consists of 1.1-5.25 ng EGFR (ErbB1) and 2 μM Tyr 04 in 50 mM HEPES pH 7.5, 0.01% BRIJ-35, 10 mM MgCl2, 2 mM MnCl2, 1 mM EGTA, 1 mM DTT. After the 1 hour Kinase Reaction incubation, 5 μL of a 1:64 dilution of DevelopmentReagent B is added.
as §3, §4

In assay [3] the target is T3, EGFR (ErbB1) T790M L858R (Homo sapiens, UniProt P00533, L858R/T790M).
T3 construct: purchased Invitrogen
T3 sequence (P00533 25-1210 T790M/L858R): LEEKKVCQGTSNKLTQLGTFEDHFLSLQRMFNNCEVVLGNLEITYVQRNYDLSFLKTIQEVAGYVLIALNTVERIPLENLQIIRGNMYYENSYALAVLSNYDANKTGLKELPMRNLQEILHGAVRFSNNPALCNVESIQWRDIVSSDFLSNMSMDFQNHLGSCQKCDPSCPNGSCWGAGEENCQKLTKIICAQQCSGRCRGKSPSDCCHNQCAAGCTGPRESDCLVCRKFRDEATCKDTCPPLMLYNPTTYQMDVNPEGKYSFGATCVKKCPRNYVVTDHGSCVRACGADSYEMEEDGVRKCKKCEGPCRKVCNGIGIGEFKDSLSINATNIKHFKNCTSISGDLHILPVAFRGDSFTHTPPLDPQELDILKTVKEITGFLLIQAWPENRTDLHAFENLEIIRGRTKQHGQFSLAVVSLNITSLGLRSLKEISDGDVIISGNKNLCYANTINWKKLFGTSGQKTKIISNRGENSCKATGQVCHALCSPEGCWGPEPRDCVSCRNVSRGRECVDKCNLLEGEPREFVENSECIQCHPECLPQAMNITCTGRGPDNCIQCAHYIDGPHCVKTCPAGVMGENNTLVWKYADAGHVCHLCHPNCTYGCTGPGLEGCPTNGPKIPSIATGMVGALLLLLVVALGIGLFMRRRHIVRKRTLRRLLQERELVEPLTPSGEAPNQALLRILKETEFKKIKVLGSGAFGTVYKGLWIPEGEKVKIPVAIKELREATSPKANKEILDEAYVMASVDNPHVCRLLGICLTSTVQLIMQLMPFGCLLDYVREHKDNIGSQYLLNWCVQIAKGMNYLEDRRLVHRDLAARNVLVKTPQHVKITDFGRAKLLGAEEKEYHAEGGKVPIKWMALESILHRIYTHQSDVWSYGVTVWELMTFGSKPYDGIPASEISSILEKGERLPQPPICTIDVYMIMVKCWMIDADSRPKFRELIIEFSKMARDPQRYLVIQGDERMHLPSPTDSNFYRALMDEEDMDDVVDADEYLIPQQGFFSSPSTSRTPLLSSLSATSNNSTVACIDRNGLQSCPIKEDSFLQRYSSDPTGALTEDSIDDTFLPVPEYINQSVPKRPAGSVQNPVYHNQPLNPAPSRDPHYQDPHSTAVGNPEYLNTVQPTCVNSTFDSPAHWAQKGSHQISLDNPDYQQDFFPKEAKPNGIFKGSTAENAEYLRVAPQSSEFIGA
The experiment in a line: Z'-LYTE kinase inhibition assay (Invitrogen), EGFR L858R/T790M. On the procedure:
as §1, §2
(iv) Peptide/Kinase Mixtures for measurement of EGFR (ErbB1) T790M L858R:
The 2×EGFR (ErbB1) T790M L858R/Tyr 04 mixture is prepared in 50 mM HEPES pH 6.5, 0.01% BRIJ-35, 10 mM MgCl2, 1 mM EGTA, 0.02% NaN3. The final 10 μL Kinase Reaction consists of 0.38-4.22 ng EGFR (ErbB1) T790M L858R and 2 μM Tyr 04 in 50 mM HEPES pH 7.0, 0.01% BRIJ-35, 10 mM MgCl2, 1 mM EGTA, 0.01% NaN3. After the 1 hour Kinase Reaction incubation, 5 μL of a 1:64 dilution of Development Reagent B is added.
as §3, §4

The values that follow come from patent publication US10947201B2, “Certain chemical entities, compositions, and methods” (NEUPHARMA, INC., priority 2015, dated 2021).

SMILES strings stand for the structures.

T1 sequence (Q06187 whole entry): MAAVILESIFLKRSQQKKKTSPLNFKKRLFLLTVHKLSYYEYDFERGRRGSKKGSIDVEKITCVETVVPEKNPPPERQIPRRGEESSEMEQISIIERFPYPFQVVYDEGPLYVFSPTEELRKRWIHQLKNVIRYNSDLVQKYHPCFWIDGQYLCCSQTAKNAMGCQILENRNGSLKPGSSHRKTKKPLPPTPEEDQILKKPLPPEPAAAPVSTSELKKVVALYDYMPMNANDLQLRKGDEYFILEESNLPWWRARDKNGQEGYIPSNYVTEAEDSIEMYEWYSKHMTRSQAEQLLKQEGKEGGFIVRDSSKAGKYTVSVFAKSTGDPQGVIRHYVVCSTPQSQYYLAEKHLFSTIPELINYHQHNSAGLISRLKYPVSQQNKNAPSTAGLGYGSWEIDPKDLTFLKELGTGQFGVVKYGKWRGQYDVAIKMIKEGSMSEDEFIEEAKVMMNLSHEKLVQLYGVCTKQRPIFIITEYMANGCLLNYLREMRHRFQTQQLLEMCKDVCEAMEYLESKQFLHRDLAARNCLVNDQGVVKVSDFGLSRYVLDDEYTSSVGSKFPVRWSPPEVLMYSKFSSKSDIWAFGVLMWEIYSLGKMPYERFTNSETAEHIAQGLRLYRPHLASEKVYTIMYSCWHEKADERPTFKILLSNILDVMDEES
T2 sequence (P00533 25-1210): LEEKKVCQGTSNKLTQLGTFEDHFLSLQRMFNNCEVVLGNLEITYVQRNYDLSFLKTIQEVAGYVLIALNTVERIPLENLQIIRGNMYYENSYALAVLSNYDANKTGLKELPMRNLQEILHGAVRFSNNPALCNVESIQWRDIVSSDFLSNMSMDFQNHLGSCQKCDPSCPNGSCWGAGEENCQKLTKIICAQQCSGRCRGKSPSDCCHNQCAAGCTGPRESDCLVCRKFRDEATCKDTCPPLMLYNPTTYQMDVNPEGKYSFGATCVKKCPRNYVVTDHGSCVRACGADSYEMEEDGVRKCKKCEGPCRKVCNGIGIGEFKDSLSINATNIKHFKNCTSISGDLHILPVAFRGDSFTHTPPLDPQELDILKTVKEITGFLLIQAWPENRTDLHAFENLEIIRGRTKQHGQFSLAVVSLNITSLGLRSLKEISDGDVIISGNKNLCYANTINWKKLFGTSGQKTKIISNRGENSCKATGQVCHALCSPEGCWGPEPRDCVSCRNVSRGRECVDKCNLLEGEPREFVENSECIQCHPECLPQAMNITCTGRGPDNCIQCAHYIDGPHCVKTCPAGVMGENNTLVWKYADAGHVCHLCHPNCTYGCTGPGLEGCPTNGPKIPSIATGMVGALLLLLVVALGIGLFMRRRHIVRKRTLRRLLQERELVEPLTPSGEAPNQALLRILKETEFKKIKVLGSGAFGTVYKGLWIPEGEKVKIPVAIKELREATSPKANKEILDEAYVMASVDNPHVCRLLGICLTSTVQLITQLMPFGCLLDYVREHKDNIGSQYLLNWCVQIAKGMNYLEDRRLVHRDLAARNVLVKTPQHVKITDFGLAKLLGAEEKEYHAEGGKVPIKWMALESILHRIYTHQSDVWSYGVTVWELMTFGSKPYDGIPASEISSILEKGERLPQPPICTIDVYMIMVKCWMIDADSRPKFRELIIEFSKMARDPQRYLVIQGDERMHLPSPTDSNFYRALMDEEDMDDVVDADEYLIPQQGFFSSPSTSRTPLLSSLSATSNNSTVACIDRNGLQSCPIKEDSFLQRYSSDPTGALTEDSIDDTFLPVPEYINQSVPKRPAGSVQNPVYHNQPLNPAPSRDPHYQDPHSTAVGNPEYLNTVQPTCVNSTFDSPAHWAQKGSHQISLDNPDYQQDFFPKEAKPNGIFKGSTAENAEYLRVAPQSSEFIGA

In the case of `C=CC(=O)Nc1cccc(-n2cnc3cnc(Nc4ccc(N5CCN(C)CC5)cc4)nc32)c1` [Example A002, N-(3-(2-((4-(4-methylpiperazin-1-yl)phenyl)amino)-9H-purin-9-yl)phenyl)acrylamide], the IC50 in assay [1] is under 100 nM; in assay [2], over 100 nM; in assay [3] it was over 100 nM. In assay [1], this compound had an inhibition at 0.1 µM of over 50%.

For the compound `C=CC(=O)Nc1cccc(-n2cnc3cnc(Nc4ccc(N5CCN(CCO)CC5)cc4F)nc32)c1` [Example A003, N-(3-(2-((2-fluoro-4-(4-(2-hydroxyethyl)piperazin-1-yl)phenyl)amino)-9H-purin-9-yl)phenyl)acrylamide], in assay [1], the inhibition at 0.1 µM is under 50%.

Regarding `C=CC(=O)N1CCC(n2cnc3cnc(Nc4ccc(N5CCN(C)CC5)c(F)c4)nc32)C1` (stereo not drawn) [Example A004, 1-(3-(2-((3-Fluoro-4-(4-methylpiperazin-1-yl)phenyl)amino)-9H-purin-9-yl)pyrrolidin-1-yl)prop-2-en-1-one], in assay [1], the inhibition at 0.1 µM is over 50%.

As for `C=CC(=O)N1CCC(n2cnc3cnc(Nc4ccc(N5CCN(C)CC5)cc4)nc32)C1` (stereo not drawn) [Example A005, 1-(3-(2-((4-(4-methylpiperazin-1-yl)phenyl)amino)-9H-purin-9-yl)pyrrolidin-1-yl)prop-2-en-1-one], in assay [1], the inhibition at 0.1 µM is over 50%.

In assay [1], `C=CC(=O)N1CCC(n2cnc3cnc(Nc4ccc(N5CCN(CCO)CC5)cc4)nc32)C1` (stereo not drawn) [Example A006, 1-(3-(2-((4-(4-(2-hydroxyethyl)piperazin-1-yl)phenyl)amino)-9H-purin-9-yl)pyrrolidin-1-yl)prop-2-en-1-one] displayed an inhibition at 0.1 µM of over 50%.

In the case of `C=CC(=O)N1CCC(n2cnc3cnc(Nc4ccc(N5CCN(CCO)CC5)c(F)c4)nc32)C1` (stereo not drawn) [Example A007, 1-(3-(2-((3-fluoro-4-(4-(2-hydroxyethyl)piperazin-1-yl)phenyl)amino)-9H-purin-9-yl)pyrrolidin-1-yl)prop-2-en-1-one], the inhibition at 0.1 µM in assay [1] is over 50%.

For `C=CC(=O)N1CCC(n2cnc3cnc(Nc4ccc(N5CCN(CCO)CC5)cc4F)nc32)C1` (stereo not drawn) [Example A008, 1-(3-(2-((2-fluoro-4-(4-(2-hydroxyethyl)piperazin-1-yl)phenyl)amino)-9H-purin-9-yl)pyrrolidin-1-yl)prop-2-en-1-one], in assay [1], the inhibition at 0.1 µM was under 50%.

As to `C=CC(=O)N1CCCC(n2cnc3cnc(Nc4ccc(N5CCN(C)CC5)c(F)c4)nc32)C1` (stereo not drawn) [Example A009, 1-(3-(2-((3-fluoro-4-(4-methylpiperazin-1-yl)phenyl)amino)-9H-purin-9-yl)piperidin-1 yl)prop-2-en-1-one], the half-inhibitory concentration (IC50) is under 100 nM in assay [1], over 100 nM in assay [2] and over 100 nM in assay [3]. In addition, the inhibition at 0.1 µM in assay [1] was over 50%.

As to `C=CC(=O)Nc1cccc(-n2cnc3cnc(Nc4ccc(N5CCN(C)CC5)c(F)c4)nc32)c1` [Example A010, N-(3-(2-((3-fluoro-4-(4-methylpiperazin-1-yl)phenyl)amino)-9H-purin-9-yl)phenyl)acrylamide], the IC50 in assay [1] was under 100 nM; in assay [2] it was over 100 nM; in assay [3], over 100 nM. In assay [1], this compound gave an inhibition at 0.1 µM of over 50%.

Take `C=CC(=O)N1CCC(n2cnc3cnc(Nc4ccc(N5CCN(C)CC5)c(F)c4F)nc32)C1` (stereo not drawn) [Example A011, 1-(3-(2-((2,3-difluoro-4-(4-methylpiperazin-1-yl)phenyl)amino)-9H-purin-9-yl)pyrrolidin-1-yl)prop-2-en-1-one]: the inhibition at 0.1 µM in assay [1], in assay [2] and in assay [3] was under 50% throughout.

For `C=CC(=O)N1CCCC(n2cnc3cnc(Nc4ccc(N5CCN(CCO)CC5)c(F)c4)nc32)C1` (stereo not drawn) [Example A012], the inhibition at 0.1 µM in assay [1] is over 50%; in assay [2], under 50%; in assay [3] it was under 50%.

`C=CC(=O)N1CCCC(n2cnc3cnc(Nc4ccc(N5CCN(CCO)CC5)cc4)nc32)C1` (stereo not drawn) [Example A013, 1-(3-(2-((4-(4-(2-hydroxyethyl)piperazin-1-yl)phenyl)amino)-9H-purin-9-yl)piperidin-1-yl)prop-2-en-1-one]: the inhibition at 0.1 µM in assay [1] was over 50%; in assay [2] it was under 50%; in assay [3], under 50%.

For the compound `C=CC(=O)Nc1cccc(-n2cnc3cnc(Nc4ccc(N5CCN(CCO)CC5)c(F)c4F)nc32)c1` [Example A014, N-(3-(2-((2,3-difluoro-4-(4-(2-hydroxyethyl)piperazin-1-yl)phenyl)amino)-9H-purin-9-yl)phenyl)acrylamide], the inhibition at 0.1 µM in assay [1], in assay [2] and in assay [3] was under 50% in each case.

As to `C=CC(=O)Nc1cccc(-n2cnc3cnc(Nc4ccc(N5CCN(CCO)CC5)cc4)nc32)c1` [Example A015, N-(3-(2-((4-(4-(2-hydroxyethyl)piperazin-1-yl)phenyl)amino)-9H-purin-9-yl)phenyl)acrylamide], the inhibition at 0.1 µM was over 50% in assay [1], under 50% in assay [2] and under 50% in assay [3].

Turning to `C=CC(=O)N1CCCC(n2cnc3cnc(Nc4ccc(N5CCN(CCO)CC5)cc4F)nc32)C1` (stereo not drawn) [Example A016, 1-(3-(2-((2-fluoro-4-(4-(2-hydroxyethyl)piperazin-1-yl)phenyl)amino)-9H-purin-9-yl)piperidin-1-yl)prop-2-en-1-one], the inhibition at 0.1 µM in assay [1], in assay [2] and in assay [3] was under 50% each time.

`C=CC(=O)N1CCC(n2cnc3cnc(Nc4ccc(N5CCN(C)CC5)cc4F)nc32)C1` (stereo not drawn) [Example A017, 1-(3-(2-((2-fluoro-4-(4-methylpiperazin-1-yl)phenyl)amino)-9H-purin-9-yl)pyrrolidin-1-yl)prop-2-en-1-one]: the inhibition at 0.1 µM in assay [1], in assay [2] and in assay [3] was under 50% in each case.

In the case of `C=CC(=O)N1CCCC(n2cnc3cnc(Nc4ccc(N5CCN(C)CC5)cc4F)nc32)C1` (stereo not drawn) [Example A018, 1-(3-(2-((2-fluoro-4-(4-methylpiperazin-1-yl)phenyl)amino)-9H-purin-9-yl)piperidin-1-yl)prop-2-en-1-one], the inhibition at 0.1 µM in assay [1], in assay [2] and in assay [3] was under 50% throughout.

On to `C=CC(=O)Nc1cccc(-n2cnc3cnc(Nc4ccc(N5CCN(C)CC5)c(F)c4F)nc32)c1` [Example A019, N-(3-(2-((2,3-difluoro-4-(4-methylpiperazin-1-yl)phenyl)amino)-9H-purin-9-yl)phenyl)acrylamide], for which the inhibition at 0.1 µM in assay [1], in assay [2] and in assay [3] was under 50% throughout.

In the case of `C=CC(=O)Nc1cccc(-n2cnc3cnc(Nc4ccc(N5CCN(CCO)CC5)c(F)c4)nc32)c1` [Example A020], the inhibition at 0.1 µM was over 50% in assay [1], under 50% in assay [2] and over 50% in assay [3].

As to `C=CC(=O)Nc1cccc(-n2cnc3cnc(Nc4ccc(N5CCN(C)CC5)cc4F)nc32)c1` [Example A021, N-(3-(2-((2-fluoro-4-(4-methylpiperazin-1-yl)phenyl)amino)-9H-purin-9-yl)phenyl)acrylamide], the inhibition at 0.1 µM in assay [1], in assay [2] and in assay [3] was under 50% each time.

Usually IC50 stands for the concentration needed to halve the response being measured. A lower IC50 goes with higher potency. What is called inhibition is the relative decrease from the control value, in per cent.
